Experiment: xn = mol fraction of the nth substance listed
Settings: 101.3 kPa, Liquid, Falling or rolling sphere viscometry

CCOC(=O)OCC [diethyl carbonate] + CCCCCCCC
Settings | viscosity [mPa·s]
293.15 K, x1 = 0.0504 | 0.535
293.15 K, x1 = 0.099 | 0.528
293.15 K, x1 = 0.1947 | 0.529
293.15 K, x1 = 0.2939 | 0.535
293.15 K, x1 = 0.3911 | 0.55
293.15 K, x1 = 0.4965 | 0.574
293.15 K, x1 = 0.6012 | 0.604
293.15 K, x1 = 0.6971 | 0.641
293.15 K, x1 = 0.7996 | 0.684
293.15 K, x1 = 0.8871 | 0.727
293.15 K, x1 = 0.9502 | 0.763
293.15 K, x1 = 1 | 0.795
298.15 K, x1 = 0.0568 | 0.514
298.15 K, x1 = 0.1069 | 0.51
298.15 K, x1 = 0.1985 | 0.511
298.15 K, x1 = 0.2979 | 0.515
298.15 K, x1 = 0.3968 | 0.528
298.15 K, x1 = 0.5035 | 0.551
298.15 K, x1 = 0.605 | 0.578
298.15 K, x1 = 0.7054 | 0.614
298.15 K, x1 = 0.8042 | 0.653
298.15 K, x1 = 0.9035 | 0.698
298.15 K, x1 = 0.9549 | 0.728
298.15 K, x1 = 1 | 0.749
303.15 K, x1 = 0.0504 | 0.485
303.15 K, x1 = 0.1002 | 0.485
303.15 K, x1 = 0.2035 | 0.486
303.15 K, x1 = 0.2953 | 0.494
303.15 K, x1 = 0.3942 | 0.507
303.15 K, x1 = 0.5035 | 0.525
303.15 K, x1 = 0.6019 | 0.55
303.15 K, x1 = 0.7055 | 0.58
303.15 K, x1 = 0.8011 | 0.613
303.15 K, x1 = 0.8999 | 0.654
303.15 K, x1 = 0.9498 | 0.677
303.15 K, x1 = 1 | 0.699
313.15 K, x1 = 0.0495 | 0.436
313.15 K, x1 = 0.0984 | 0.44
313.15 K, x1 = 0.1957 | 0.448
313.15 K, x1 = 0.2957 | 0.459
313.15 K, x1 = 0.3958 | 0.472
313.15 K, x1 = 0.4982 | 0.488
313.15 K, x1 = 0.6036 | 0.508
313.15 K, x1 = 0.6992 | 0.529
313.15 K, x1 = 0.7994 | 0.554
313.15 K, x1 = 0.8992 | 0.586
313.15 K, x1 = 0.9502 | 0.608
313.15 K, x1 = 1 | 0.623

COC(=O)OC [dimethyl carbonate] + C1CCCCC1
Settings | viscosity [mPa·s]
293.15 K, x1 = 0.0495 | 0.886
293.15 K, x1 = 0.0987 | 0.814
293.15 K, x1 = 0.2078 | 0.709
293.15 K, x1 = 0.2961 | 0.66
293.15 K, x1 = 0.3974 | 0.626
293.15 K, x1 = 0.5014 | 0.608
293.15 K, x1 = 0.6002 | 0.6
293.15 K, x1 = 0.7028 | 0.593
293.15 K, x1 = 0.7994 | 0.59
293.15 K, x1 = 0.9017 | 0.597
293.15 K, x1 = 0.9513 | 0.609
293.15 K, x1 = 1 | 0.626
298.15 K, x1 = 0.0378 | 0.833
298.15 K, x1 = 0.0808 | 0.776
298.15 K, x1 = 0.1764 | 0.681
298.15 K, x1 = 0.2896 | 0.619
298.15 K, x1 = 0.388 | 0.587
298.15 K, x1 = 0.4938 | 0.567
298.15 K, x1 = 0.5908 | 0.557
298.15 K, x1 = 0.6864 | 0.553
298.15 K, x1 = 0.7918 | 0.555
298.15 K, x1 = 0.8976 | 0.561
298.15 K, x1 = 0.9503 | 0.572
298.15 K, x1 = 1 | 0.585
303.15 K, x1 = 0.0391 | 0.758
303.15 K, x1 = 0.0931 | 0.703
303.15 K, x1 = 0.1875 | 0.632
303.15 K, x1 = 0.2908 | 0.581
303.15 K, x1 = 0.3897 | 0.545
303.15 K, x1 = 0.4962 | 0.522
303.15 K, x1 = 0.5958 | 0.508
303.15 K, x1 = 0.6909 | 0.504
303.15 K, x1 = 0.7975 | 0.507
303.15 K, x1 = 0.8912 | 0.522
303.15 K, x1 = 0.9441 | 0.528
303.15 K, x1 = 1 | 0.536
313.15 K, x1 = 0.101 | 0.605
313.15 K, x1 = 0.1482 | 0.574
313.15 K, x1 = 0.2563 | 0.524
313.15 K, x1 = 0.3646 | 0.495
313.15 K, x1 = 0.4661 | 0.477
313.15 K, x1 = 0.572 | 0.468
313.15 K, x1 = 0.6633 | 0.465
313.15 K, x1 = 0.7699 | 0.47
313.15 K, x1 = 0.8688 | 0.479
313.15 K, x1 = 0.9757 | 0.491
313.15 K, x1 = 0.9935 | 0.493
313.15 K, x1 = 1 | 0.494

COC(=O)OC [dimethyl carbonate] + CCCCCCCC
Settings | viscosity [mPa·s]
293.15 K, x1 = 0.0513 | 0.532
293.15 K, x1 = 0.0997 | 0.524
293.15 K, x1 = 0.2027 | 0.508
293.15 K, x1 = 0.3063 | 0.506
293.15 K, x1 = 0.3994 | 0.502
293.15 K, x1 = 0.5123 | 0.507
293.15 K, x1 = 0.6078 | 0.512
293.15 K, x1 = 0.7137 | 0.524
293.15 K, x1 = 0.8055 | 0.541
293.15 K, x1 = 0.9061 | 0.575
293.15 K, x1 = 0.9516 | 0.596
293.15 K, x1 = 1 | 0.626
298.15 K, x1 = 0.0558 | 0.504
298.15 K, x1 = 0.096 | 0.498
298.15 K, x1 = 0.1488 | 0.489
298.15 K, x1 = 0.2289 | 0.478
298.15 K, x1 = 0.2947 | 0.477
298.15 K, x1 = 0.4216 | 0.474
298.15 K, x1 = 0.4883 | 0.475
298.15 K, x1 = 0.5931 | 0.479
298.15 K, x1 = 0.6867 | 0.491
298.15 K, x1 = 0.7879 | 0.509
298.15 K, x1 = 0.8873 | 0.541
298.15 K, x1 = 0.9502 | 0.561
298.15 K, x1 = 1 | 0.585
303.15 K, x1 = 0.0519 | 0.478
303.15 K, x1 = 0.0827 | 0.474
303.15 K, x1 = 0.1947 | 0.457
303.15 K, x1 = 0.2829 | 0.452
303.15 K, x1 = 0.3948 | 0.45
303.15 K, x1 = 0.4942 | 0.448
303.15 K, x1 = 0.5964 | 0.45
303.15 K, x1 = 0.6983 | 0.46
303.15 K, x1 = 0.7886 | 0.473
303.15 K, x1 = 0.8946 | 0.5
303.15 K, x1 = 0.9545 | 0.52
303.15 K, x1 = 1 | 0.536
313.15 K, x1 = 0.0512 | 0.432
313.15 K, x1 = 0.1005 | 0.43
313.15 K, x1 = 0.186 | 0.419
313.15 K, x1 = 0.301 | 0.413
313.15 K, x1 = 0.4072 | 0.409
313.15 K, x1 = 0.5002 | 0.41
313.15 K, x1 = 0.6042 | 0.417
313.15 K, x1 = 0.709 | 0.43
313.15 K, x1 = 0.7993 | 0.446
313.15 K, x1 = 0.8465 | 0.459
313.15 K, x1 = 0.9524 | 0.485
313.15 K, x1 = 1 | 0.494

C1CCCCC1 [cyclohexane] + CCOC(=O)OCC
x2 = 0
Settings | viscosity [mPa·s]
293.15 K | 0.976
298.15 K | 0.894
303.15 K | 0.813
313.15 K | 0.697

CCCCCCCC [octane] + CCOC(=O)OCC
x2 = 0
Settings | viscosity [mPa·s]
293.15 K | 0.545
298.15 K | 0.513
303.15 K | 0.484
313.15 K | 0.434

CCCCCC [hexane] + COC(=O)OC
x2 = 0
Settings | viscosity [mPa·s]
293.15 K | 0.313
298.15 K | 0.301
303.15 K | 0.282
313.15 K | 0.258

C1CCCCC1 [cyclohexane] + COC(=O)OC
x2 = 0
Settings | viscosity [mPa·s]
293.15 K | 0.976
298.15 K | 0.894
303.15 K | 0.813
313.15 K | 0.697

Source: the NIST ThermoML archive (doi:10.1021/je020131a)
